These results are taken from patent publication US20250382344A1, “Soluble GLP1/GIP/NPY2 Receptor Triple Agonists” (Boehringer Ingelheim International GmH, priority 2024, published 2025).

For one data set, the target named is T1, hGIPR (Homo sapiens, UniProt P48546).
T1 construct: expressed in transfected cells; host or cells: CHO CRE-luciferase reporter cells
T1 sequence (P48546 22-466): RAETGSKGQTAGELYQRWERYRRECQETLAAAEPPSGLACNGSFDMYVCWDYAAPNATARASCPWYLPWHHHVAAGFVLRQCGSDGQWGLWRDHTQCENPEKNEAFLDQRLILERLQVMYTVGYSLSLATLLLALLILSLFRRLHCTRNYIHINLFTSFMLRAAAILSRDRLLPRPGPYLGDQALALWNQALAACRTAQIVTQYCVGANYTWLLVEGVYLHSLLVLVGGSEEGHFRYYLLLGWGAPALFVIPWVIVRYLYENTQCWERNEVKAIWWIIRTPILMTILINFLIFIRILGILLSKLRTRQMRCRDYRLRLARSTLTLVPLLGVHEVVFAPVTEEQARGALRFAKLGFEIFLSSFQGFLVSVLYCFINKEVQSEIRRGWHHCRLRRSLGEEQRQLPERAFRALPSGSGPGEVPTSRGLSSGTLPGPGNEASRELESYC
As to the kind of experiment: hGIPR CreLuc assay in 0.5% and 100% plasma (CHO CRE-luciferase reporter cells). Type of data set: cell-based. The source says:
CHO and HEK-293 recombinant cell lines express a luciferase reporter gene under control of the CAMP responsive element (CRE). As a second recombinant protein the GLP-1 and NPY2 receptors were expressed in the reporter gene HEK cells, and the GIP receptor was expressed in the reporter gene CHO cells, respectively. Stimulation of these recombinant cells with an agonist leads to an increase of intracellular CAMP levels. In the presence of CAMP, the transcription factor CRE binding protein (CREB) binds to the CRE and to the CREB binding protein (CBP), which leads to transcription of the luciferase reporter gene. Peptides upon serial-dilution in 100% DMSO were transferred into 384-well assay plates with 5 μl pre-dispensed assay buffer (1×HBSS, 20 mM HEPES, pH7.4 supplemented with 0.5% human plasma) using acoustic dispensing on a Labcyte ECHO. Cryo-preserved transgenic reporter gene cells were thawed in assay buffer. 20 μl (10.000 cells/well) were added to the plate with the peptides and incubated for 4 hours at 37° C. in a humidified incubator. Following incubation, assay plates are equilibrated to room temperature, followed by addition of 25 μl of Bright-Glo™ Luciferase reagent, incubation at room temperature for 10 minutes and analysis of luminescence (Envision Reader). […] EC50 values were calculated by non-linear regression using sigmoid concentration-response with variable slope.
The same assays were run in the presence of 100% plasma with no additional buffer constituents.

The nature of data set [1]: Solubility in 0.1 M phosphate buffer at pH 7. It counts as physicochemical. The conditions noted are these: 0.1 M phosphate buffer at pH 7, 10 mg/mL final peptide concentration, shaking 2 hours at room temperature, peptides as TFA-salts, measured sample pH 6.5-7.0.
Setting [2] is: 0.5% human plasma, read-out: hGIPR 0.5% hP.
Setting [3] is: 100% human plasma, read-out: hGIPR 100% hP.

pEC50: −log10 of the molar value. Like-named read-outs stand apart in the source and are kept apart here.

Usually solubility stands for how much of the substance goes into solution per volume. In the case of `CC[C@H](C)[C@H](NC(=O)[C@H](CC(C)C)NC(=O)[C@H](Cc1c[nH]cn1)NC(=O)[C@H](CCCNC(=N)N)NC(=O)[C@@H](NC(=O)[C@H](Cc1ccccc1)NC(=O)[C@H](C)NC(=O)C(C)(C)NC(=O)[C@H](CCC(N)=O)NC(=O)[C@H](C)NC(=O)[C@H](C)NC(=O)[C@H](CCCCN)NC(=O)[C@H](CCC(=O)O)NC(=O)[C@H](CC(C)C)NC(=O)C(C)(C)NC(=O)[C@@H](NC(=O)[C@H](CO)NC(=O)[C@H](Cc1ccc(O)cc1)NC(=O)[C@H](CC(=O)O)NC(=O)[C@H](CO)NC(=O)[C@@H](NC(=O)[C@H](Cc1ccccc1)NC(=O)[C@@H](NC(=O)CNC(=O)[C@H](CCC(=O)O)NC(=O)C(C)(C)NC(=O)[C@@H](N)Cc1ccc(O)cc1)[C@@H](C)O)[C@@H](C)O)[C@@H](C)CC)C(C)C)C(=O)N[C@@H](CC(N)=O)C(=O)N[C@@H](CCCCNC(=O)[C@@H](N)CCCCNC(=O)CC[C@H](NC(=O)CC[C@H](NC(=O)CC[C@H](NC(=O)CC[C@H](NC(=O)CC[C@H](NC(=O)CC[C@H](NC(=O)CCCCCCCCCCCCCCCCCCC(=O)O)C(=O)O)C(=O)O)C(=O)O)C(=O)O)C(=O)O)C(=O)O)C(=O)NC(C)(C)C(=O)N[C@H](C(=O)N[C@@H](CCCNC(=N)N)C(=O)N[C@@H](CCC(N)=O)C(=O)N[C@@H](CCCNC(=N)N)C(=O)N[C@@H](Cc1ccc(O)cc1)C(N)=O)[C@@H](C)O` [Compound 4, Y-Aib-E-G-T-F-T-S-D-Y-S-I-Aib-L-E-K-A-A-Q-Aib-A-F-V-R-H-L-I-N-K(1,3)-Aib-T-R-Q-R-Y-NH2.C20DA-gGlu-gGlu-gGlu-gGlu-gGlu-gGlu-eLys(1,2)], the pEC50 is 9.52 on hGIPR (setting [2]) and 7.94 on hGIPR (setting [3]). In addition, in data set [1], the solubility at 2 h was determined as 10000 µg/mL.

In the case of `CC[C@H](C)[C@H](NC(=O)[C@H](CC(C)C)NC(=O)[C@H](Cc1c[nH]cn1)NC(=O)[C@H](CCCNC(=N)N)NC(=O)[C@@H](NC(=O)[C@H](Cc1ccccc1)NC(=O)[C@H](C)NC(=O)C(C)(C)NC(=O)[C@H](CCC(N)=O)NC(=O)[C@H](C)NC(=O)[C@H](CCC(N)=O)NC(=O)[C@H](CC(N)=O)NC(=O)[C@H](CCC(=O)O)NC(=O)[C@H](CC(C)C)NC(=O)C(C)(C)NC(=O)[C@@H](NC(=O)[C@H](CO)NC(=O)[C@H](Cc1ccc(O)cc1)NC(=O)[C@H](CC(=O)O)NC(=O)[C@H](CO)NC(=O)[C@@H](NC(=O)[C@H](Cc1ccccc1)NC(=O)[C@@H](NC(=O)CNC(=O)[C@H](CCC(=O)O)NC(=O)C(C)(C)NC(=O)[C@@H](N)Cc1ccc(O)cc1)[C@@H](C)O)[C@@H](C)O)[C@@H](C)CC)C(C)C)C(=O)N[C@@H](CC(N)=O)C(=O)N[C@@H](CCCCNC(=O)[C@@H](N)CCCCNC(=O)CC[C@H](NC(=O)CC[C@H](NC(=O)CC[C@H](NC(=O)CC[C@H](NC(=O)CC[C@H](NC(=O)CC[C@H](NC(=O)CCCCCCCCCCCCCCCCC(=O)O)C(=O)O)C(=O)O)C(=O)O)C(=O)O)C(=O)O)C(=O)O)C(=O)NC(C)(C)C(=O)N[C@H](C(=O)N[C@@H](CCCNC(=N)N)C(=O)N[C@@H](CCC(N)=O)C(=O)N[C@@H](CCCNC(=N)N)C(=O)N[C@@H](Cc1ccc(O)cc1)C(N)=O)[C@@H](C)O` [Compound 6, Y-Aib-E-G-T-F-T-S-D-Y-S-I-Aib-L-E-N-Q-A-Q-Aib-A-F-V-R-H-L-I-N-K(1,3)-Aib-T-R-Q-R-Y-NH2.C18DA-gGlu-gGlu-gGlu-gGlu-gGlu-gGlu-eLys(1,2)], the pEC50 on hGIPR (setting [2]) was 9.15. In data set [1], the solubility at 2 h turned out to be 8900 µg/mL.

As to `CC[C@H](C)[C@H](NC(=O)[C@H](CC(C)C)NC(=O)[C@H](Cc1c[nH]cn1)NC(=O)[C@H](CCCNC(=N)N)NC(=O)[C@@H](NC(=O)[C@H](Cc1ccccc1)NC(=O)[C@H](C)NC(=O)C(C)(C)NC(=O)[C@H](CCC(N)=O)NC(=O)[C@H](C)NC(=O)[C@H](CCC(N)=O)NC(=O)[C@H](CCCCN)NC(=O)[C@H](CCC(=O)O)NC(=O)[C@H](CC(C)C)NC(=O)C(C)(C)NC(=O)[C@@H](NC(=O)[C@H](CO)NC(=O)[C@H](Cc1ccc(O)cc1)NC(=O)[C@H](CC(=O)O)NC(=O)[C@H](CO)NC(=O)[C@@H](NC(=O)[C@H](Cc1ccccc1)NC(=O)[C@@H](NC(=O)CNC(=O)[C@H](CCC(=O)O)NC(=O)C(C)(C)NC(=O)[C@@H](N)Cc1ccc(O)cc1)[C@@H](C)O)[C@@H](C)O)[C@@H](C)CC)C(C)C)C(=O)N[C@@H](CC(N)=O)C(=O)N[C@@H](CCCCNC(=O)[C@@H](N)CCCCNC(=O)[C@@H](N)CCCCNC(=O)CC[C@H](NC(=O)CC[C@H](NC(=O)CC[C@H](NC(=O)CC[C@H](NC(=O)CC[C@H](NC(=O)CC[C@H](NC(=O)CCCCCCCCCCCCCCCCC(=O)O)C(=O)O)C(=O)O)C(=O)O)C(=O)O)C(=O)O)C(=O)O)C(=O)NC(C)(C)C(=O)N[C@H](C(=O)N[C@@H](CCCNC(=N)N)C(=O)N[C@@H](CCC(N)=O)C(=O)N[C@@H](CCCNC(=N)N)C(=O)N[C@@H](Cc1ccc(O)cc1)C(N)=O)[C@@H](C)O` [Compound 11, Y-Aib-E-G-T-F-T-S-D-Y-S-I-Aib-L-E-K-Q-A-Q-Aib-A-F-V-R-H-L-I-N-K(1,3)-Aib-T-R-Q-R-Y-NH2.C18DA-gGlu-gGlu-gGlu-gGlu-gGlu-gGlu-eLys-eLys(1,2)], the pEC50 at hGIPR (setting [2]) was 9.52; at hGIPR (setting [3]), 8.10. Moreover, the solubility at 2 h in data set [1] is 800 µg/mL.

Regarding `CC[C@H](C)[C@H](NC(=O)[C@H](CC(C)C)NC(=O)[C@H](Cc1c[nH]cn1)NC(=O)[C@H](CCCNC(=N)N)NC(=O)[C@@H](NC(=O)[C@H](Cc1ccccc1)NC(=O)[C@H](C)NC(=O)C(C)(C)NC(=O)[C@H](CCC(N)=O)NC(=O)[C@H](C)NC(=O)[C@H](CCC(N)=O)NC(=O)[C@H](CCCCN)NC(=O)[C@H](CCC(=O)O)NC(=O)[C@H](CC(C)C)NC(=O)C(C)(C)NC(=O)[C@@H](NC(=O)[C@H](CO)NC(=O)[C@H](Cc1ccc(O)cc1)NC(=O)[C@H](CC(=O)O)NC(=O)[C@H](CO)NC(=O)[C@@H](NC(=O)[C@H](Cc1ccccc1)NC(=O)[C@@H](NC(=O)CNC(=O)[C@H](CCC(=O)O)NC(=O)C(C)(C)NC(=O)[C@@H](N)Cc1ccc(O)cc1)[C@@H](C)O)[C@@H](C)O)[C@@H](C)CC)C(C)C)C(=O)N[C@@H](CC(N)=O)C(=O)N[C@@H](CCCCNC(=O)[C@@H](N)CCCCNC(=O)CC[C@H](NC(=O)CC[C@H](NC(=O)CC[C@H](NC(=O)CC[C@H](NC(=O)CC[C@H](NC(=O)CC[C@H](NC(=O)CCCCCCCCCCCCCCCCC(=O)O)C(=O)O)C(=O)O)C(=O)O)C(=O)O)C(=O)O)C(=O)O)C(=O)NC(C)(C)C(=O)N[C@H](C(=O)N[C@@H](CCCNC(=N)N)C(=O)N(C)[C@@H](CCC(N)=O)C(=O)N[C@@H](CCCNC(=N)N)C(=O)N[C@@H](Cc1ccc(O)cc1)C(N)=O)[C@@H](C)O` [Compound 17, Y-Aib-E-G-T-F-T-S-D-Y-S-I-Aib-L-E-K-Q-A-Q-Aib-A-F-V-R-H-L-I-N-K(1,3)-Aib-T-R-NMeQ-R-Y-NH2.C18DA-gGlu-gGlu-gGlu-gGlu-gGlu-gGlu-eLys(1,2)], the pEC50 is 9.70 on hGIPR (setting [2]) and 8.70 at hGIPR (setting [3]). For the same molecule, in data set [1], the solubility at 2 h was 4000 µg/mL.

Regarding `CC[C@H](C)[C@H](NC(=O)[C@H](CC(C)C)NC(=O)[C@H](Cc1c[nH]cn1)NC(=O)[C@H](CCCNC(=N)N)NC(=O)[C@@H](NC(=O)[C@H](Cc1ccccc1)NC(=O)[C@H](C)NC(=O)C(C)(C)NC(=O)[C@H](CCC(N)=O)NC(=O)[C@H](C)NC(=O)[C@H](CCC(N)=O)NC(=O)[C@H](CCCCN)NC(=O)[C@H](CCC(=O)O)NC(=O)[C@H](CC(C)C)NC(=O)C(C)(C)NC(=O)[C@@H](NC(=O)[C@H](CO)NC(=O)[C@H](Cc1ccc(O)cc1)NC(=O)[C@H](CC(=O)O)NC(=O)[C@H](CO)NC(=O)[C@@H](NC(=O)[C@H](Cc1ccccc1)NC(=O)[C@@H](NC(=O)CNC(=O)[C@H](CCC(=O)O)NC(=O)C(C)(C)NC(=O)[C@@H](N)Cc1ccc(O)cc1)[C@@H](C)O)[C@@H](C)O)[C@@H](C)CC)C(C)C)C(=O)N[C@@H](CC(N)=O)C(=O)N[C@@H](CCCCNC(=O)[C@@H](N)CCCCNC(=O)CC[C@H](NC(=O)CC[C@H](NC(=O)CC[C@H](NC(=O)CC[C@H](NC(=O)CC[C@H](NC(=O)CC[C@H](NC(=O)CCCCCCCCCCCCCCCCCCC(=O)O)C(=O)O)C(=O)O)C(=O)O)C(=O)O)C(=O)O)C(=O)O)C(=O)NC(C)(C)C(=O)N[C@H](C(=O)N[C@@H](CCCNC(=N)N)C(=O)N(C)[C@@H](CCC(N)=O)C(=O)N[C@@H](CCCNC(=N)N)C(=O)N[C@@H](Cc1ccc(O)cc1)C(N)=O)[C@@H](C)O` [Compound 26, Y-Aib-E-G-T-F-T-S-D-Y-S-I-Aib-L-E-K-Q-A-Q-Aib-A-F-V-R-H-L-I-N-K(1,3)-Aib-T-R-NMeQ-R-Y-NH2.C20DA-gGlu-gGlu-gGlu-gGlu-gGlu-gGlu-eLys(1,2)], the results for the pEC50 on hGIPR (setting [2]) and on hGIPR (setting [3]) were 9.52 and 8.25, respectively. Moreover, the solubility in data set [1] (read-out: Solubility) came out at 9400 µg/mL.
